Values quoted from earlier work, collected in US9890223B2, “Resin particles and process for producing same, antiglare film, light-diffusing resin composition, and external preparation” (SEKISUI PLASTICS CO., LTD., priority 2010, dated 2018).

Conditions: 20° C.

Row | Compound | Solubility in Water
1 | C=C(C)C(=O)OCCCC [n-butyl methacrylate] | 0.04 % by weight
2 | C=C(C)C(=O)OC(C)(C)C [tert-butyl methyacrylate] | 0.05 % by weight
3 | C=C(C)C(=O)OCCCCCCCCCCCC [Lauryl methacrylate] | 0.01 or less % by weight
4 | C=C(C)C(=O)OC [Methyl methacrylate] | 1.72 % by weight
5 | C=C(C)C(=O)OCC(C)C [Isobutyl methacrylate] | 0.04 % by weight
